In US8697739B2, “Bicyclic acetyl-CoA carboxylase inhibitors and uses thereof” (Novartis AG, priority 2010, dated 2014):

Molecular target: T1, human acetyl-CoA carboxylase 2 (ACC2) (Homo sapiens, UniProt O00763)
T1 construct: The cDNA encoding amino acids 144 to 2458 of human acetyl-CoA carboxylase 2; made in house; host or cells: Sf9 insect cells (baculovirus, pFastBac1)
Assay: Acetyl-CoA carboxylase enzyme assay (malonyl-CoA formation by LC/MS/MS)
Assay type: biochemical
Conditions: recombinant human ACC2 (aa 144-2458); read-out: IC50 ACC2
Excerpt: The cDNA encoding amino acids 144 to 2458 of human acetyl-CoA carboxylase 2 (ACC2, GenBank Accession #NM_001093) was cloned into the SalI and NotI sites of pFastBac1 (Invitrogen; Carlsbad, Calif.). The resulting plasmid was used to generate a recombinant ACC2 baculovirus that was amplified and titered according to the protocols in the Bac-to-Bac baculovirus expression system manual (Invitrogen). The titered virus was used to infect Sf9 cells grown in Ex-Cell 420 serum-free medium (JRH Biosciences; Lenexa, Kans.). At 48 hours post-infection, the cells were harvested and stored at −80° C. until purification. ACC2 was purified using ammonium sulfate precipitation and anion exchange chromatography.
The enzymatic assay was run as follows: 30 μL of reaction buffer (100 mM HEPES pH 7.5, 20 mM MgCl2, 20 mM potassium citrate, 2 mM DTT) was added to a 384-well microtiter plate followed by 2 μL of the test compound (or 100% DMSO control). ACC2 protein (10 μL of a 50 nM working solution) was added to plate, which was incubated at room temperature for 15 minutes. A 30 μL addition of substrate solution (50 μM acetyl-CoA, 120 μM ATP, 2 mM KHCO3) was used to initiate the reactions which were quenched with 6% acetic acid (40 μL). ACC catalyzed malonyl-CoA formation was detected by LC/MS/MS using a Cohesive Technologies LX Series multiplex LC/MSIMS system configured with four binary pumps (Agilent Technologies; Palo Alto, Calif.), a dual arm autosampler (Leap Technologies; Cary, N.C.), and one Quattro Micro triple quadrupole mass spectrometer (Waters, Milford, Mass.), all run by Aria Software version 1.5 (Cohesive Technologies; Franklin, Mass.). Four samples were injected (20 μL) onto four Phenosphere NEXT C18 30×2 mm 5 μm columns (Phenomenex; Torrance, Calif.), eluted by four separate pumps, running identical gradients, through a column switching manifold with the one outlet fitted to the electrospray (ESI) source. Malonyl-CoA was eluted with 5 mM ammonium acetate, pH 4.5 (Buffer A) and 100% acetonitrile (Buffer B) via a step gradient. Argon was used as the collision gas and the following species were monitored via MRM detection: malonyl-CoA (853.8>346.9), internal standard (A: [^13C3]-malonyl-CoA, 857>350). The lower limit of detection is 0.3 uM for malonyl-CoA in this assay.

T1 sequence (O00763 144-2458): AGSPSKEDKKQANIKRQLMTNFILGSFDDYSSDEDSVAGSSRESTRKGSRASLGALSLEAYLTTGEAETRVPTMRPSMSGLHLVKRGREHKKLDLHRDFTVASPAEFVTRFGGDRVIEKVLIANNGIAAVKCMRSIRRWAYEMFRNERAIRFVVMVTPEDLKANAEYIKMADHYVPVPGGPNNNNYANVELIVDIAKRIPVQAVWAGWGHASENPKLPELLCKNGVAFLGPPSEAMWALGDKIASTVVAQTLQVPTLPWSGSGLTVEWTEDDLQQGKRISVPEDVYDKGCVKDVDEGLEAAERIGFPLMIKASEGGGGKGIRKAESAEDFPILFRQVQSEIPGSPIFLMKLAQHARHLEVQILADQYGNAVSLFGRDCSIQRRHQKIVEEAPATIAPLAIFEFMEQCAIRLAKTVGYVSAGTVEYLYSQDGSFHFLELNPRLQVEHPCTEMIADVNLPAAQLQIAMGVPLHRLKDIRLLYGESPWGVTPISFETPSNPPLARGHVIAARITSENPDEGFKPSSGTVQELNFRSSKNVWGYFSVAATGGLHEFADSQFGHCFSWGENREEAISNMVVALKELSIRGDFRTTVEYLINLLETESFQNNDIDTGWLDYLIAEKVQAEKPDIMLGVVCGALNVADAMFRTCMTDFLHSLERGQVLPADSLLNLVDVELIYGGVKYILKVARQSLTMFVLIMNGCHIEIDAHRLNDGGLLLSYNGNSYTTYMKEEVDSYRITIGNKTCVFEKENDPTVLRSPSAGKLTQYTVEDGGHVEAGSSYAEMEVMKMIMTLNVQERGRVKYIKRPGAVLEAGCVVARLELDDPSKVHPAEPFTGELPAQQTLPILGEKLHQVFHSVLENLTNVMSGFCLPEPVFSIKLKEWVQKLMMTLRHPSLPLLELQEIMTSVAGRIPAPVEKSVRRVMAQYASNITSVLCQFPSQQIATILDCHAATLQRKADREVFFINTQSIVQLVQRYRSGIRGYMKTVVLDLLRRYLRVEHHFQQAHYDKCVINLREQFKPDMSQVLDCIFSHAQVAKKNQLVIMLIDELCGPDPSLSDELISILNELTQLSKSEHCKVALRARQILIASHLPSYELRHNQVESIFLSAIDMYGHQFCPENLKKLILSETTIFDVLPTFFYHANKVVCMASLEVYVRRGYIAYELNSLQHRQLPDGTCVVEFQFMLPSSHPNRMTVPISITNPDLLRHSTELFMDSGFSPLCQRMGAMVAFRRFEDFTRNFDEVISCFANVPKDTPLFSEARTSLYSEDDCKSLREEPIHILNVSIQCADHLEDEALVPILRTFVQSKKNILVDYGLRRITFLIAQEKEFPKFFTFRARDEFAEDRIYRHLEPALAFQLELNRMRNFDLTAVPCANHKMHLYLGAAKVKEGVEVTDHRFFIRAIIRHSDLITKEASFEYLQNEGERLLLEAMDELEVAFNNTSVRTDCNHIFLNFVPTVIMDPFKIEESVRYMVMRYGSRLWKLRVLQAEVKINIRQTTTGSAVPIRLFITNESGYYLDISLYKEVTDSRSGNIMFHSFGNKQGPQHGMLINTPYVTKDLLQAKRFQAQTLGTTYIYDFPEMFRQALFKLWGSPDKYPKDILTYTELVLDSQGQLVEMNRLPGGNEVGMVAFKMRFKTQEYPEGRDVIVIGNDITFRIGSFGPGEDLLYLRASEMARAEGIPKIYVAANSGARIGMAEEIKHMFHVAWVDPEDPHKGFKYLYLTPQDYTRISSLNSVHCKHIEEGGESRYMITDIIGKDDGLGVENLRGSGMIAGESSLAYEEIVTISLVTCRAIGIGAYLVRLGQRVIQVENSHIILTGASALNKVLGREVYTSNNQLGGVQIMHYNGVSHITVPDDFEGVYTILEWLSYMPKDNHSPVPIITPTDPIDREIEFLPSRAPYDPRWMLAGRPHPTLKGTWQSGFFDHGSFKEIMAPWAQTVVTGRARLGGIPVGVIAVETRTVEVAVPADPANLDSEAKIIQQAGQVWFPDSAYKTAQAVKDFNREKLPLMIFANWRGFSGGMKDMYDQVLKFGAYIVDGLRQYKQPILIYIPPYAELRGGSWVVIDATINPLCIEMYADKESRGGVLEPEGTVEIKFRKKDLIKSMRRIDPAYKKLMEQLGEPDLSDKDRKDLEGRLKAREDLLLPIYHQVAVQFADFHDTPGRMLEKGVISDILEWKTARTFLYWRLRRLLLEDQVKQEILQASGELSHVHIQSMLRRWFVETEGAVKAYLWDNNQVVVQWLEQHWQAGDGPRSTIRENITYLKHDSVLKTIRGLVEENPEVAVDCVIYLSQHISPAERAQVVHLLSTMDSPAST

SMILES | IC50 [nM]
O=C([C@H]1CC[C@H](NS(=O)(=O)c2cnc3ccccc3c2)CC1)N1CCNCC1c1ccccc1 (stereo partly drawn) [Example 61, N-((1r,4r)-4-(2-phenylpiperazine-1-carbonyl)cyclohexyl)quinoline-3-sulfonamide] | 98
C[C@@H](NC(=O)[C@H]1CC[C@H](NS(=O)(=O)c2cccc3nc(-c4ccccc4)cn23)CC1)c1ccc(F)cc1 [Example 65, (1r,4R)-N-((R)-1-(4-fluorophenyl)ethyl)-4-(2-phenylimidazo[1,2-a]pyridine-5-sulfonamido)cyclohexanecarboxamide] | 149
CC(NC(=O)[C@H]1CC[C@H](NS(=O)(=O)c2cnc3ccccc3c2)CC1)c1ccc(F)c(F)c1 (stereo partly drawn) [Example 66, (1r,4r)-N-(1-(3,4-difluorophenyl)ethyl)-4-(quinoline-3-sulfonamido)cyclohexanecarboxamide] | 205
C[C@@H](NC(=O)[C@H]1CC[C@H](NS(=O)(=O)c2ccc3nc(OCCN(C)C)ccc3c2)CC1)c1ccc(F)cc1 [Example 69, (1r,4R)-4-(2-(2-(dimethylamino)ethoxy)quinoline-6-sulfonamido)-N-((R)-1-(4-fluorophenyl)ethyl)cyclohexanecarboxamide] | 50
C=Cc1ccc2cc(S(=O)(=O)N[C@H]3CC[C@H](C(=O)N[C@H](C)c4ccc(F)cc4)CC3)ccc2n1 [Example 71, (1r,4R)-N-((R)-1-(4-fluorophenyl)ethyl)-4-(2-vinylquinoline-6-sulfonamido)cyclohexanecarboxamide] | 405
Cc1ccc2cc(S(=O)(=O)N[C@H]3CC[C@H](C(=O)N[C@H](C)c4ccc(F)cc4)CC3)ccc2n1 [Example 72, (1r,4R)-N-((R)-1-(4-fluorophenyl)ethyl)-4-(2-methylquinoline-6-sulfonamido)cyclohexanecarboxamide] | 115
CCOC(=O)COc1ccc2cc(S(=O)(=O)N[C@H]3CC[C@H](C(=O)N[C@H](C)c4ccc(F)cc4)CC3)ccc2n1 [Example 73, ethyl 2-(6-(N-((1R,4r)-4-((R)-1-(4-fluorophenyl)ethylcarbamoyl)cyclohexyl)sulfamoyl)quinolin-2-yloxy)acetate] | 175
Cc1ccccc1-c1nc2cc(S(=O)(=O)N[C@H]3CC[C@H](C(=O)N[C@H](C)c4ccc(F)cc4)CC3)cnc2o1 [Example 76, (1r,4R)-N-((R)-1-(4-fluorophenyl)ethyl)-4-(2-o-tolyloxazolo[5,4-b]pyridine-6-sulfonamido)cyclohexanecarboxamide] | 590
C[C@@H](NC(=O)[C@H]1CC[C@H](NS(=O)(=O)c2ccc3nc(OCC(=O)O)ccc3c2)CC1)c1ccc(F)cc1 [Example 78, 2-(6-(N-((1R,4r)-4-((R)-1-(4-fluorophenyl)ethylcarbamoyl)cyclohexyl)sulfamoyl)quinolin-2-yloxy)acetic acid] | 470
C[C@@H](NC(=O)[C@H]1CC[C@H](NS(=O)(=O)c2ccc3nc(-c4ccccc4)cn3c2)CC1)c1ccc(F)cc1 [Example 79, (1r,4R)-N-((R)-1-(4-fluorophenyl)ethyl)-4-(2-phenylimidazo[1,2-a]pyridine-6-sulfonamido)cyclohexanecarboxamide] | 115
C[C@@H](NC(=O)[C@H]1CC[C@H](NS(=O)(=O)c2ccc3nc(OCC(C)(C)O)ccc3c2)CC1)c1ccc(F)cc1 [Example 81, (1r,4R)-N-((R)-1-(4-fluorophenyl)ethyl)-4-(2-(2-hydroxy-2-methylpropoxy)quinoline-6-sulfonamido)cyclohexanecarboxamide] | 95
C[C@@H](NC(=O)[C@H]1CC[C@H](NS(=O)(=O)c2ccc3nc(OC4COC4)ccc3c2)CC1)c1ccccn1 [Example 83, (1r,4R)-4-(2-(oxetan-3-yloxy)quinoline-6-sulfonamido)-N-((R)-1-(pyridin-2-yl)ethyl)cyclohexanecarboxamide] | 855
CC(C)(C)OC(=O)N1CCN(C(=O)[C@H]2CC[C@H](NS(=O)(=O)c3cnc4ccccc4c3)CC2)[C@@H](c2ccccc2)C1 [Example 84, (S)-tert-butyl 3-phenyl-4-((1r,4S)-4-(quinoline-3-sulfonamido)cyclohexanecarbonyl)piperazine-1-carboxylate] | 45

The remaining lines, values ahead:

IC50 [nM] | SMILES
339 | O=C([C@H]1CC[C@H](NS(=O)(=O)c2cnc3ccccc3c2)CC1)N1CCCCC1c1ccccc1 (stereo partly drawn) [Example 59, N-((1r,4r)-4-(2-phenylpiperidine-1-carbonyl)cyclohexyl)quinoline-3-sulfonamide]
131 | CC(C)(C)OC(=O)N1CCN(C(=O)[C@H]2CC[C@H](NS(=O)(=O)c3cnc4ccccc4c3)CC2)C(c2ccccc2)C1 (stereo partly drawn) [Example 60, tert-butyl 3-phenyl-4-((1r,4r)-4-(quinoline-3-sulfonamido)cyclohexanecarbonyl)piperazine-1-carboxylate]
> 35000 | CC(NC(=O)[C@H]1CC[C@H](NS(=O)(=O)c2cnc3ccccc3c2)CC1)c1cnn(C)c1 (stereo partly drawn) [Example 62, (1r,4r)-N-(1-(1-methyl-1H-pyrazol-4-yl)ethyl)-4-(quinoline-3-sulfonamido)cyclohexanecarboxamide]
> 35000 | Cc1c(C(F)(F)F)nc2cccc(S(=O)(=O)N[C@H]3CC[C@H](C(=O)N[C@H](C)c4ccc(F)cc4)CC3)n12 [Example 63, (1r,4R)-N-((R)-1-(4-fluorophenyl)ethyl)-4-(3-methyl-2-(trifluoromethyl)imidazo[1,2-a]pyridine-5-sulfonamido)cyclohexanecarboxamide]
42 | C[C@@H](NC(=O)[C@H]1CC[C@H](NS(=O)(=O)c2ccc3nc(OC4COC4)ccc3c2)CC1)c1ccc(F)cc1 [Example 64, (1r,4R)-N-((R)-1-(4-fluorophenyl)ethyl)-4-(2-(oxetan-3-yloxy)quinoline-6-sulfonamido)cyclohexanecarboxamide]
240 | CC(NC(=O)[C@H]1CC[C@H](NS(=O)(=O)c2cnc3ccccc3c2)CC1)c1ccc(F)cc1F (stereo partly drawn) [Example 67, (1r,4r)-N-(1-(2,4-difluorophenyl)ethyl)-4-(quinoline-3-sulfonamido)cyclohexanecarboxamide]
70 | COCCOc1ccc2cc(S(=O)(=O)N[C@H]3CC[C@H](C(=O)N[C@H](C)c4ccc(F)cc4)CC3)ccc2n1 [Example 68, (1r,4R)-N-((R)-1-(4-fluorophenyl)ethyl)-4-(2-(2-methoxyethoxy)quinoline-6-sulfonamido)cyclohexanecarboxamide]
165 | Cc1c(-c2ccccc2)nc2ccc(S(=O)(=O)N[C@H]3CC[C@H](C(=O)N[C@H](C)c4ccc(F)cc4)CC3)cn12 [Example 70, (1r,4R)-N-((R)-1-(4-fluorophenyl)ethyl)-4-(3-methyl-2-phenylimidazo[1,2-a]pyridine-6-sulfonamido)cyclohexanecarboxamide]
160 | CCc1ccc2cc(S(=O)(=O)N[C@H]3CC[C@H](C(=O)N[C@H](C)c4ccc(F)cc4)CC3)ccc2n1 [Example 74, (1r,4R)-4-(2-ethylquinoline-6-sulfonamido)-N-((R)-1-(4-fluorophenyl)ethyl)cyclohexanecarboxamide]
95 | Cc1ccccc1-c1nc2cc(S(=O)(=O)N[C@H]3CC[C@H](C(=O)N[C@H](C)c4ccc(F)cc4)CC3)cnc2s1 [Example 75, (1r,4R)-N-((R)-1-(4-fluorophenyl)ethyl)-4-(2-o-tolylthiazolo[5,4-b]pyridine-6-sulfonamido)cyclohexanecarboxamide]
50 | CCC1CCc2cc(S(=O)(=O)N[C@H]3CC[C@H](C(=O)N[C@H](C)c4ccc(F)cc4)CC3)ccc2N1 (stereo partly drawn) [Example 77, (1r,4R)-4-(2-ethyl-1,2,3,4-tetrahydroquinoline-6-sulfonamido)-N-((R)-1-(4-fluorophenyl)ethyl)cyclohexanecarboxamide]
40 | C[C@@H](NC(=O)[C@H]1CC[C@H](NS(=O)(=O)c2ccc3nc(OC(C)(C)CO)ccc3c2)CC1)c1ccc(F)cc1 [Example 80, (1r,4R)-N-((R)-1-(4-fluorophenyl)ethyl)-4-(2-(1-hydroxy-2-methylpropan-2-yloxy)quinoline-6-sulfonamido)cyclohexanecarboxamide]
845 | CCOc1ccc2cc(S(=O)(=O)N[C@H]3CC[C@H](C(=O)N[C@H](C)c4ccccn4)CC3)ccc2n1 [Example 82, (1r,4R)-4-(2-ethoxyquinoline-6-sulfonamido)-N-((R)-1-(pyridin-2-yl)ethyl)cyclohexanecarboxamide]
143 | O=C([C@H]1CC[C@H](NS(=O)(=O)c2cnc3ccccc3c2)CC1)N1CCNC[C@@H]1c1ccccc1 [Example 85, N-((1S,4r)-4-((S)-2-phenylpiperazine-1-carbonyl)cyclohexyl)quinoline-3-sulfonamide]
